# Experimental data: paper PMC8286840, “Identifying SARS-CoV-2 antiviral compounds by screening for small molecule inhibitors of Nsp3 papain-like protease” (Biochemical Journal, 2021)
# Structures can show the parent of a compound that is named as a salt. Where two headings read alike, the source gives them in different places. Where a SMILES comes first, the peptide text is derived from it. [ ]: non-standard residue; d: D form. Dolaproine = CO[C@@H]([C@@H]1CCCN1)[C@@H](C)C(=O)O; Dil = CC[C@H](C)[C@H](NC)[C@@H](CC(=O)O)OC; NMeV = CN[C@H](C(=O)O)C(C)C
# Experiments:
# [1] = molecular target: T1, SARS-CoV-2 PLpro (nsp3 1564–1878) (Severe acute respiratory syndrome coronavirus 2, UniProt P0DTD1); assay: biochemical; parameters: FRET-quenched peptide (Pro3) cleavage by PLpro, 10 min pre-incubation, slope over 20 min, normalised to no-compound control; settings: high concentration screen, read-out: % of control remaining
# [2] = molecular target: T1, SARS-CoV-2 PLpro (nsp3 1564–1878); assay: biochemical; parameters: FRET-quenched peptide (Pro3) cleavage by PLpro, 10 min pre-incubation, slope over 20 min, normalised to no-compound control; settings: low concentration screen, read-out: % of control remaining
smiles,measurement,setting,value
CCCCCCCCOc1ccccc1C(=O)Nc1ccc(C(=O)OCC[N+](C)(CC)CC)cc1 [Otilonium (bromide)],remaining activity at 3.75 µM,[1]; Well no.=6315,97.2%
same,remaining activity at 1.25 µM,[2]; Well no.=6315,103%
CC(=O)Nc1nc(C)c(S(=O)(=O)Nc2ccc(C(O)(C(F)(F)F)C(F)(F)F)cc2)s1 [SR1001],remaining activity at 3.75 µM,[1]; Well no.=5461,111%
same,remaining activity at 3.75 µM,[1]; Well no.=8467,106%
same,remaining activity at 1.25 µM,[2]; Well no.=8467,106%
CN(C)S(=O)(=O)c1ccc2c(c1)/C(=C/c1cc3c([nH]1)CCCC3)C(=O)N2 [SU6656],remaining activity at 3.75 µM,[1]; Well no.=2500,99.1%
same,remaining activity at 3.75 µM,[1]; Well no.=8074,98.5%
same,remaining activity at 1.25 µM,[2]; Well no.=2500,94.8%
same,remaining activity at 1.25 µM,[2]; Well no.=8074,101%
C[C@H](NC(=O)c1cc(Cl)ccc1Oc1ccc(F)cc1)c1ccc(C(=O)O)cc1 [CJ-42794],remaining activity at 3.75 µM,[1]; Well no.=6222,94.2%
same,remaining activity at 1.25 µM,[2]; Well no.=6222,98%
CC(=O)O[C@H]1C(=O)[C@@]2(C)[C@H]([C@H](OC(=O)c3ccccc3)[C@]3(O)C[C@H](O)C(C)=C1C3(C)C)[C@]1(OC(C)=O)CO[C@@H]1C[C@@H]2O [Baccatin III],remaining activity at 3.75 µM,[1]; Well no.=3099,99.5%
same,remaining activity at 1.25 µM,[2]; Well no.=3099,97.9%
CCCCCN(CCCCC)C(=O)C(CCC(=O)O)NC(=O)c1ccc(Cl)c(Cl)c1 (centres unmarked) [Lorglumide sodium],remaining activity at 3.75 µM,[1]; Well no.=820,99.3%
same,remaining activity at 1.25 µM,[2]; Well no.=820,102%
CC[C@H]1OC(=O)[C@@](C)(F)C(=O)[C@H](C)[C@@H](O[C@@H]2O[C@H](C)C[C@H](N(C)C)[C@H]2O)[C@](C)(OC)C[C@@H](C)C(=O)[C@H](C)[C@H]2N(CCCCn3cc(-c4cccc(N)c4)nn3)C(=O)O[C@]12C [Solithromycin],remaining activity at 3.75 µM,[1]; Well no.=7990,95.7%
same,remaining activity at 1.25 µM,[2]; Well no.=7990,97.5%
Cc1c[nH]c(/C=C2\C(=O)Nc3ccccc32)c1CCC(=O)O [SU-5402],remaining activity at 3.75 µM,[1]; Well no.=3037,95.9%
same,remaining activity at 1.25 µM,[2]; Well no.=3037,96.3%
OC[C@H]1O[C@@H](c2ccc(Cl)c(Cc3ccc(O[C@H]4CCOC4)cc3)c2)[C@H](O)[C@@H](O)[C@@H]1O [Empagliflozin (BI 10773)],remaining activity at 3.75 µM,[1]; Well no.=8724,91.3%
same,remaining activity at 1.25 µM,[2]; Well no.=8724,98.6%
NC(=O)c1cc(S(=O)(=O)Nc2ccc3cc(C4CC4)[nH]c3c2)ccc1O [CD73-IN-1],remaining activity at 3.75 µM,[1]; Well no.=8325,94.5%
same,remaining activity at 1.25 µM,[2]; Well no.=8325,95.7%
CCOc1cc(N)c(Cl)cc1C(=O)NCC1CN(Cc2ccc(F)cc2)CCO1 (centres unmarked) [Mosapride (citrate)],remaining activity at 3.75 µM,[1]; Well no.=6657,109%
same,remaining activity at 1.25 µM,[2]; Well no.=6657,104%
COc1cc(C(=O)NCc2ccc(OCCN(C)C)cc2)cc(OC)c1OC [Trimethobenzamide hydrochloride],remaining activity at 3.75 µM,[1]; Well no.=8493,91.3%
same,remaining activity at 1.25 µM,[2]; Well no.=8493,90.1%
CCc1cnc(N2CCC(c3nc(COc4ccc(-n5cnnn5)cc4)cs3)CC2)nc1 [MBX-2982],remaining activity at 3.75 µM,[1]; Well no.=8381,99.5%
same,remaining activity at 1.25 µM,[2]; Well no.=8381,102%
CC(C)(C)NC[C@H](O)COc1nsnc1N1CCOCC1 [(S)-Timolol maleate],remaining activity at 3.75 µM,[1]; Well no.=1739,97.3%
same,remaining activity at 1.25 µM,[2]; Well no.=1739,98.8%
CC(C)[N+]1(C)[C@@H]2CC[C@H]1C[C@@H](OC(=O)C(CO)c1ccccc1)C2 (some centres unmarked) [Ipratropium bromide],remaining activity at 3.75 µM,[1]; Well no.=526,103%
same,remaining activity at 1.25 µM,[2]; Well no.=526,105%
C[C@@H]1O[C@@H](OC[C@H]2O[C@@H](Oc3cc(O)c4c(c3)O[C@H](c3ccc(O)cc3)CC4=O)[C@H](O)[C@@H](O)[C@@H]2O)[C@H](O)[C@H](O)[C@H]1O [Narirutin],remaining activity at 3.75 µM,[1]; Well no.=3347,93.8%
same,remaining activity at 1.25 µM,[2]; Well no.=3347,91.9%
Cc1nc(C#Cc2cccnc2)cs1 [MTEP (hydrochloride)],remaining activity at 3.75 µM,[1]; Well no.=7283,94.9%
same,remaining activity at 1.25 µM,[2]; Well no.=7283,92.5%
COC1CCN(C(=O)c2cc(Cc3n[nH]c(=O)c4ccccc34)ccc2F)CC1 [AZD2461],remaining activity at 3.75 µM,[1]; Well no.=5172,102%
same,remaining activity at 1.25 µM,[2]; Well no.=5172,105%
COc1ccccc1Oc1c(NS(=O)(=O)c2ccc(C(C)(C)C)cc2)nc(-c2ncccn2)nc1OCCO [Bosentan Hydrate],remaining activity at 3.75 µM,[1]; Well no.=5273,95.6%
same,remaining activity at 1.25 µM,[2]; Well no.=5273,97.9%
CNCC(O)c1ccc(O)c(O)c1 (racemic) [DL-Adrenaline],remaining activity at 3.75 µM,[1]; Well no.=5278,94.3%
same,remaining activity at 1.25 µM,[2]; Well no.=5278,96.6%
CC(C)(Oc1ccc(CCNC(=O)c2ccc(Cl)cc2)cc1)C(=O)O [Bezafibrate],remaining activity at 3.75 µM,[1]; Well no.=1660,97.5%
same,remaining activity at 1.25 µM,[2]; Well no.=1660,98.3%
FC(F)(F)c1ccccc1-n1ccnc1 [1-[2-(Trifluoromethyl)phenyl]imidazole],remaining activity at 3.75 µM,[1]; Well no.=1533,90.7%
same,remaining activity at 1.25 µM,[2]; Well no.=1533,89.9%
CN1CCN2c3ccccc3Cc3ccccc3C2C1 (centres unmarked) [Mianserin.HCl],remaining activity at 3.75 µM,[1]; Well no.=1540,101%
same,remaining activity at 1.25 µM,[2]; Well no.=1540,100%
CC(O)(P(=O)(O)O)P(=O)(O)O [Etidronate],remaining activity at 3.75 µM,[1]; Well no.=2068,97.5%
same,remaining activity at 3.75 µM,[1]; Well no.=8826,87.6%
same,remaining activity at 1.25 µM,[2]; Well no.=2068,96.4%
same,remaining activity at 1.25 µM,[2]; Well no.=8826,85.3%
NC(=O)c1ccccc1C(=O)N[C@@H](CCC(=O)O)C(=O)O [Phthalamoyl-L-glutamic acid trisodium],remaining activity at 3.75 µM,[1]; Well no.=1409,101%
same,remaining activity at 1.25 µM,[2]; Well no.=1409,99.3%
CC/C=C\C[C@@H](/C=C/C=C\C/C=C\C/C=C\CCCC(=O)O)OO [15(S)-HPEPE],remaining activity at 3.75 µM,[1]; Well no.=4335,102%
same,remaining activity at 1.25 µM,[2]; Well no.=4335,103%
CC(=O)O[C@H]1C[C@@]2(C)[C@@H](C[C@@H](O)[C@H]3[C@@]4(C)CC[C@@H](O)[C@@H](C)[C@@H]4CC[C@@]32C)/C1=C(\CCC=C(C)C)C(=O)O [Fusidic acid sodium],remaining activity at 3.75 µM,[1]; Well no.=657,101%
same,remaining activity at 1.25 µM,[2]; Well no.=657,104%
CC[C@H](C)[C@@H]([C@@H](CC(=O)N1CCC[C@H]1[C@H](OC)[C@@H](C)C(=O)N[C@@H](Cc1ccccc1)C(=O)O)OC)N(C)C(=O)[C@@H](NC(=O)[C@@H](NC)C(C)C)C(C)C [MMAF (Hydrochloride)] (H-[NMeV]V[Dil][Dolaproine]F-OH),remaining activity at 3.75 µM,[1]; Well no.=7650,89.5%
same,remaining activity at 1.25 µM,[2]; Well no.=7650,89.6%
NC(N)=NCCCC(=O)O [4-Guanidinobutanoic acid],remaining activity at 3.75 µM,[1]; Well no.=7687,106%
same,remaining activity at 1.25 µM,[2]; Well no.=7687,108%
CNS(=O)(=O)CCc1ccc2[nH]cc(C3CCN(C)CC3)c2c1 [Naratriptan (hydrochloride)],remaining activity at 3.75 µM,[1]; Well no.=7385,100%
same,remaining activity at 1.25 µM,[2]; Well no.=7385,100%
CCc1cc2c(=O)c(-c3nc4ccccc4s3)coc2c(CN2CCCCC2)c1O [SZL P1-41],remaining activity at 3.75 µM,[1]; Well no.=6694,102%
same,remaining activity at 1.25 µM,[2]; Well no.=6694,103%
CCn1cc(C(=O)O)c(=O)c2cc(F)c(N3CCNCC3)nc21 [Enoxacin],remaining activity at 3.75 µM,[1]; Well no.=2026,106%
same,remaining activity at 1.25 µM,[2]; Well no.=2026,103%
O=C1Nc2ccc3ncsc3c2/C1=C/c1cnc[nH]1 [PKR Inhibitor],remaining activity at 3.75 µM,[1]; Well no.=2511,103%
same,remaining activity at 1.25 µM,[2]; Well no.=2511,103%
